Source: patent US5317022A, “Pharmaceutical composition and use” (priority 1991, dated 1994)
Where two headings read alike, the source gives them in different places.

Key:
rats [1] = test: sedative (narcosis potentiating) effect, Inactine base narcotic, rats; type: in vivo
Procedure: Inactine (35 mg/kg) was used as a base narcotic.
*ED500 % = dose increasing narcosis to five times the control.

mice [2] = test: physical dependency, jumping test on mice; details: treatment 7 x 100 mg/kg ip.; naloxone 50 mg/kg ip.
rat [3] = test: analgetic effect, hot plate (rat); type: in vivo
rat [4] = test: analgetic effect, tail flick (rat); type: in vivo
mice [5] = test: analgetic effect, writhing test (mice); type: in vivo
rat [6] = details: dose giving 100% activity
rats [7] = test system: rats
rabbits [8] = test: effects on respiration on conscious rabbits (III.5, Marey-drum)
Procedure: Investigation was carried out on conscious rabbits of both sexes and of 3-4 kg weight by way of a Marey-drum. Frequency and amplitude of respiration were quantitatively evaluated.

[9] = target: (^3 H)naloxone binding sites; test: wash-resistant binding of (3H)naloxone, rat brain membranes; details: preincubated with (3H)naloxone 1 nM and test compound; remaining specific binding after several washings; average of 2-4 data; compound.HCl; read-out: Ki (nM), affinity constants
Procedure: (§1) Membrane preparation: A crude membrane fraction from rat brain (PVG/C strain) was prepared [Mol. Pharm.11 (1975) 340-351 and the protein content was defined [Anal. Biochem. 72(1976) 248-254).
(§2) The membrane suspension (200-400 μg protein) was incubated with the specific radioligand for 1 hour on ice. Incubations were terminated by rapid filtration under vacuo followed by washing with ice cold tris HCl buffer (50 mM, pH 7,4). Radioactivity was measured in a toluene based scintillation mixture on a LKB Minibeta Liquid Scintillation Spectrophotometer. Nonspecific binding was defined in the presence of 10 μM unlabeled naloxone. All assays were performed in triplicate and repeated several times. Ki values were determined from equilibrium experiments and calculated with the Tshang-Prusov equation. The data were evaluated using the Ligand program [Anal. Biol. Chem. 107 (1980) 220-239](Data shown on Table III/1).
After preincubation a thorough washing was performed. [Life Sci. 32 (1983) 2777-2784]. Control values are represented by the specific binding of (3H)naloxone to membranes preincubated with a buffer and treated in the same way. Heterologous displacement experiments were used to evaluate the affinity of the investigated compounds for (^3 H)naloxone binding sites.

[10] = target: (^3 H)naloxone binding sites; test: competition binding assay with (3H)naloxone on rat brain membranes; details: membranes incubated with (3H)naloxone 1 nM and increasing ligand concentrations; read-out: Affinity constants (Ki nM) in competition assays
Procedure: as §1, §2

rabbits [11] = test: effect on respiration on conscious rabbits (III.6, type A/B/C tests); type: in vivo; design: resp. change ampl.: unit not given here
Procedure: The method as described above in Example III.5 was used on conscious rabbits of 2,5-3 kg weight. Registration was continued for 3-4 hours. The samples were injected under the skin of the neck and the respiration parameters were registered at intervals of 10 minutes.

rat [12] = test: animal or person; details: read-out: algolyt. test (rat) 100% activity
mice [13] = details: in vivo
[14] = s.c. on rats, Inactine 35 mg/kg, dose as base
[15] = OS 0.025 mg/kg s.c. (20 min), morphine 5 mg/kg s.c., 20 min
[16] = OS 0.025 mg/kg s.c. (30 min), morphine 5 mg/kg s.c., 30 min
[17] = OS 0.025 mg/kg s.c., 10 min (before morphine)
[18] = OS 0.50 mg/kg s.c. (30 min), morphine 20 mg/kg s.c., 20 min
[19] = type A: OH 0.25 mg/kg s.c., 20 min
[20] = type A: OH 0.25 mg/kg s.c., 30 min
[21] = type A: OH 0.25 mg/kg s.c., then morphine 5 mg/kg s.c., 10 min
[22] = type C: OH 0.25 mg/kg with morphine 5 mg/kg s.c., 20 min

Q: What does the source list for `CN1CC[C@]23c4c5ccc(O)c4O[C@H]2[C@@H](O)C=C[C@H]3[C@H]1C5` [Morphine, reference compound]?
A: ED500 % (dose increasing narcosis to five times the control) (rats [1]; [14]): 1,75 mg/kg; % relation of jumping animals (mice [2]): 100%; number of jumps/mouse (average) (mice [2]): 34,5; hot plate (rat) ED50 (rat [3]; rat): 3,6 mg/kg; tail flick (rat) ED50 (rat [4]; rat): 1,8 mg/kg; writhing test (mice) ED50 (mice [5]; mice): 0,45 mg/kg; algolyt. test (rat) 100% activity (rat [6]): 15,0 mg/kg

Q: `COc1ccc2c3c1O[C@H]1C(=O)CC[C@@]4(O)[C@@H](C2)N(C)CC[C@]314` [Oxycodone, reference compound] was tested. Which “ED500 % (dose increasing narcosis to five times the control)” value (rats [1]; [14]) did it give?
A: 1,2 mg/kg

Q: And the “hot plate (rat) ED50” value (rat [3]; rat)?
A: 0.92 mg/kg

Q: And the “tail flick (rat) ED50” value (rat [4]; rat)?
A: 0,68 mg/kg

Q: And the “writhing test (mice) ED50” value (mice [5]; mice)?
A: 0,45 mg/kg

Q: What about the “algolyt. test (rat) 100% activity” value (rat [6]) of the same compound?
A: 2,2 mg/kg

Q: What about the “change of morphine toxicity (in words)” value (rats [7]; administered together with morphine, s.c.) of the same compound?
A: potentiate toxicity of morphine

Q: And the “Combination LD50 / morphine LD50” value (rats [7]; test substance 10 mg/kg s.c.)?
A: 0,57

Q: What about the respiration effect (rabbits [8]; 10-2500 μg/kg i.v., s.c.) of the same compound?
A: depression

Q: And the respiration frequency/min. (rabbits [8]; 10-2500 μg/kg i.v., s.c.)?
A: .dwnarw.

Q: And the respiration volume (rabbits [8]; 10-2500 μg/kg i.v., s.c.)?
A: .dwnarw.

Q: What about the “influence on the respiratory depression effect of morphine (in words)” value (rabbits [8]; rabbit, in vivo) of the same compound?
A: unambiguously potentiate the respiratory depression effect of morphine

Q: What about the “respiratory depression by the compound alone (in words)” value (rabbits [8]; s.c., dihydrocodeinone 50-2500 μg/kg, oxycodone 10-2500 μ/kg) of the same compound?
A: cause respiratory depression

Q: With `COc1ccc2c3c1O[C@H]1C(=NNC(N)=O)CC[C@@]4(O)[C@@H](C2)N(C)CC[C@]314` [Oxycodone-semicarbazone, 14-OH-DIHYDROCODEINONE-SEMICARBAZONE (TRANS)] as the compound, how does the Ki [9] read?
A: 588 nM

Q: And the “ED500 % (dose increasing narcosis to five times the control)” value (rats [1]; rat, in vivo)?
A: 1,5 mg/kg

Q: And the ED50 (rat [3]; Rattus norvegicus, read-out: hot plate (rat) ED50)?
A: 0.58 mg/kg

Q: What about the ED50 (rat [4]; Rattus norvegicus, read-out: tail flick (rat) ED50) of the same compound?
A: 0.35 mg/kg

Q: What about the Ki [10] of the same compound?
A: 588 nM

Q: What about the resp. change ampl. (rabbits [11]; OS 0.01 mg/kg s.c., 10 min) of the same compound?
A: 0

Q: What about the resp. change fr/min (rabbits [11]; OS 0.01 mg/kg s.c., 10 min) of the same compound?
A: +48

Q: And the resp. change ampl. (rabbits [11]; OS 0.01 mg/kg s.c., 30 min)?
A: +20

Q: What about the resp. change fr/min (rabbits [11]; OS 0.01 mg/kg s.c., 30 min) of the same compound?
A: +51

Q: And the resp. change ampl. (rabbits [11]; [15])?
A: -16

Q: What about the resp. change fr/min (rabbits [11]; [15]) of the same compound?
A: +24

Q: What about the resp. change ampl. (rabbits [11]; [16]) of the same compound?
A: -20

Q: What about the resp. change fr/min (rabbits [11]; [16]) of the same compound?
A: +13

Q: What about the resp. change ampl. (rabbits [11]; [17]) of the same compound?
A: +20

Q: And the resp. change fr/min (rabbits [11]; [17])?
A: +48

Q: What about the resp. change ampl. (rabbits [11]; OS 0.025 mg/kg s.c., 30 min) of the same compound?
A: +20

Q: And the resp. change fr/min (rabbits [11]; OS 0.025 mg/kg s.c., 30 min)?
A: +51

Q: And the resp. change ampl. (rabbits [11]; OS 0.05 mg/kg s.c., 10 min)?
A: +75

Q: What about the resp. change fr/min (rabbits [11]; OS 0.05 mg/kg s.c., 10 min) of the same compound?
A: +50

Q: What about the resp. change ampl. (rabbits [11]; [18]) of the same compound?
A: 0

Q: And the resp. change fr/min (rabbits [11]; [18])?
A: +10

Q: What about the resp. change ampl. (rabbits [11]; OS 0.50 mg/kg s.c., 10 min) of the same compound?
A: 0

Q: And the resp. change fr/min (rabbits [11]; OS 0.50 mg/kg s.c., 10 min)?
A: +36

Q: And the “respiration number (in words)” value (rabbits [11]; small doses)?
A: considerably increase the respiration number

Q: What about the ED50 (mice [5]; Mus musculus, read-out: writhing test (mice) ED50) of the same compound?
A: 0.15 mg/kg

Q: What about the ED100 (rat [12]) of the same compound?
A: 5 mg/kg

Q: And the “respiration effect (printed over two lines: morphine-inhibition)” value (rabbits [8]; rabbit, in vivo)?
A: inhibition

Q: And the respiration frequency/min. (rabbits [8]; rabbit, in vivo)?
A: .uparw.

Q: What about the respiration volume (rabbits [8]; rabbit, in vivo) of the same compound?
A: .uparw..dwnarw.

Q: What does the source list for `COc1ccc2c3c1O[C@H]1C(=NN)CC[C@@]4(O)[C@@H](C2)N(C)CC[C@]314` [Oxycodone hydrazone, 14-OH-DIHYDROCODEINONE-HYDRAZONE (TRANS)]?
A: number of jumps/mouse (average) (mice [13]): 1,5; % relation of jumping animals (mice [13]; mouse): 50%; ED500 % (dose increasing narcosis to five times the control) (rats [1]; rat, in vivo): 0,45 mg/kg; potentiation of Inactine narcosis (in words) (rats [1]; rat, in vivo): most effectively prolongated; ED50 (rat [3]; Rattus norvegicus; read-out: hot plate (rat) ED50): 0.46 mg/kg; ED50 (rat [4]; Rattus norvegicus; read-out: tail flick (rat) ED50): 0.65 mg/kg; Ki [10]: 800 nM; resp. change ampl. (rabbits [11]; [19]): +20; resp. change fr/min (rabbits [11]; [19]): +150; resp. change ampl. (rabbits [11]; [20]): +20; resp. change fr/min (rabbits [11]; [20]): +127; resp. change ampl. (rabbits [11]; [21]): -30; resp. change fr/min (rabbits [11]; [21]): -36; resp. change ampl. (rabbits [11]; [22]): +10; resp. change fr/min (rabbits [11]; [22]): +30; ED50 (mice [5]; Mus musculus; read-out: writhing test (mice) ED50): 0.35 mg/kg; ED100 (rat [12]): 10 mg/kg; volume and frequency of respiration (in words) (rabbits [8]; 50 μg/kg dose): increases both the volume and the frequency of respiration; respiration effect (printed over two lines: slight reversion) (rabbits [8]; rabbit, in vivo): reversion; reversal of morphine respiratory depression (in words) (rabbits [8]; rabbit, in vivo): a partial reversal takes place; respiration frequency/min. (rabbits [8]; rabbit, in vivo, sc): .uparw.; respiration volume (rabbits [8]; rabbit, in vivo, sc): .uparw.
